Data on 3 compounds can be found in patent publication US12643867B2, “Compositions and uses thereof” (University of Virginia Patent Foundation, priority 2017, dated 2026).

Where two headings read alike, the source gives them in different places.

One test deals with Gamma (DGK gamma) (Homo sapiens, UniProt P49619). The test is described as follows: DGK isoform % Activity screen. The class given is biochemical.
The next test addresses T1, recombinant DGKα (Rattus norvegicus, UniProt P51556).
T1 construct: expressed in transfected cells; host or cells: HEK293T (SILAC HEK293T for LC-MS)
The test is described as follows: ADP-glo DAG phosphorylation substrate assay. The class given is biochemical. On the procedure:
The ADP-Glo DAG phosphorylation substrate assay was adapted from Sato et al (Sato et al., 2013). Transfected HEK cells expressing recombinant FLAG-DGKA were harvested in DPBS and centrifuged at 1400×g for 3 min. Supernatant was removed and 1 mL Lysis Buffer (50 mM HEPES (pH 7.2), 150 mM NaCl, 5 mM MgCL2, 1 mM DTT, 1 mM phenylmethylsulfonyl […], Phosphatase Inhibitor Cocktail 2 (Sigma-Aldrich), and EDTA-Free Protease Inhibitor Mini Tablets (Pierce)) was added and cells re-suspended. Solutions were sonicated (3×1 sec pulse, 20% amplitude) and then centrifuged at 400×g for 5 min. Supernatant was separated and protein concentrations were measured using the Bio-Rad DC protein assay and diluted in Lysis Buffer as appropriate. Samples were stored at −80° C. until use.
Micelles were prepared from lipid stocks as follows: Reaction Buffer (50 mM MOPS (pH 7.4). 1 mM DTT. 100 mM NaCl. 20 mM NaF, and |μM CaCl2)) was prepared in ddH2O. […] 1,2-dioleoyl-sn-glycerol (DG) and 1.2-dioleoyl-sn-glycero-3-phospho-L-serine (DOPS) in chloroform were mixed and then dried under nitrogen. Triton Buffer was added to the dried lipids to a final concentration of 10 mM DG and 8 mM DOPS. This solution was incubated at room temperature for 5 min with gentle shaking, followed by sonication (3×1 sec pulse, 20% amplitude). The micelles were then diluted 4-fold in reaction buffer to yield the final micelle buffer. […] of lysate was aliquoted into each well of a 96 well plate, followed by micelle buffer to a final volume of 20 μL. 19 μL of this mix was added to 1 μL of DMSO or inhibitor solution and incubated at 30° C. for 30 min. After incubation, 5 μL of reaction initiator was added to each well and mixed thoroughly, followed by aliquoting 5 μL of each reaction mixture to a 96-well half area black polystyrene plate and incubated at 30° C. for 30 min. At this point the procedure for the ADP-GloTM assay (Promega) was performed. 5 μL of ‘ADP-Glo Reagent’ was added to each well, mixed thoroughly, and allowed to incubate at 25° C. for 40 min. Then 10 μL of the ‘Kinase Detection Reagent’ was added to each well, mixed thoroughly, and allowed to incubate at 25° C. for 40 min. Luminescence was measured with no filter and an integration time of 1 sec per well on a BMG Labtech CLARIOstar plate reader.
The percentage of enzyme activity remaining was determined by comparing integrated band intensities or luminescence of inhibitor—with DMSO-treated samples for gel-based chemical proteomic or ADP-glo assays, respectively. For both chemical proteomic and ADP-glo methods, nonlinear regression analysis was used to determine the IC50 values from a dose-response curve generated using GraphPad Prism. Data are shown as mean±s.e.m. Determination of significance was performed by one-way ANOVA. All statistical analyses were performed using GraphPad Prism.

Setting [1] is: DGKα-HEK293T proteome, read-out: IC50, DGKα inhibition, DAG phosphorylation substrate assay.
The mark [2] stands for this setting: read-out: 95% confidence intervals for IC50 values, substrate assay.

T1 sequence (P51556 whole entry): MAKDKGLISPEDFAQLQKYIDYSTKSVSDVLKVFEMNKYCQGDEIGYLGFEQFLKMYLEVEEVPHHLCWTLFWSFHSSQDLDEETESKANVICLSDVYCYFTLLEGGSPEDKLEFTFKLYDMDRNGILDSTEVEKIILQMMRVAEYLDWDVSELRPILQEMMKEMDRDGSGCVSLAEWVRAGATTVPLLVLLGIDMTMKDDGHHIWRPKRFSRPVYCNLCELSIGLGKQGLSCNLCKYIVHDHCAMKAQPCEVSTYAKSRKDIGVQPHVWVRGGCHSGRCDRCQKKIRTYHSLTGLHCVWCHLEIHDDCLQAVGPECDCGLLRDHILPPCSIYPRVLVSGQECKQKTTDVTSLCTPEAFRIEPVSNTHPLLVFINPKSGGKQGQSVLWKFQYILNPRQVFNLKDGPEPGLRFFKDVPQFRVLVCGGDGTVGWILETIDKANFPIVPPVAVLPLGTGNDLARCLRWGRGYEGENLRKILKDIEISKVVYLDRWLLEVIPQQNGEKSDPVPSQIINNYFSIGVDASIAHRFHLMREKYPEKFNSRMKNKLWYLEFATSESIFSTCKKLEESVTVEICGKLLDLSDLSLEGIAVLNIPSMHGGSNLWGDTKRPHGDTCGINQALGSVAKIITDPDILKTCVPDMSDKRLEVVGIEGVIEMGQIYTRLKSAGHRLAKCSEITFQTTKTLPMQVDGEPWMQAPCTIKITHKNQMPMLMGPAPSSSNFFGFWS
Chain of Gamma (DGK gamma) (P49619 whole entry, canonical isoform): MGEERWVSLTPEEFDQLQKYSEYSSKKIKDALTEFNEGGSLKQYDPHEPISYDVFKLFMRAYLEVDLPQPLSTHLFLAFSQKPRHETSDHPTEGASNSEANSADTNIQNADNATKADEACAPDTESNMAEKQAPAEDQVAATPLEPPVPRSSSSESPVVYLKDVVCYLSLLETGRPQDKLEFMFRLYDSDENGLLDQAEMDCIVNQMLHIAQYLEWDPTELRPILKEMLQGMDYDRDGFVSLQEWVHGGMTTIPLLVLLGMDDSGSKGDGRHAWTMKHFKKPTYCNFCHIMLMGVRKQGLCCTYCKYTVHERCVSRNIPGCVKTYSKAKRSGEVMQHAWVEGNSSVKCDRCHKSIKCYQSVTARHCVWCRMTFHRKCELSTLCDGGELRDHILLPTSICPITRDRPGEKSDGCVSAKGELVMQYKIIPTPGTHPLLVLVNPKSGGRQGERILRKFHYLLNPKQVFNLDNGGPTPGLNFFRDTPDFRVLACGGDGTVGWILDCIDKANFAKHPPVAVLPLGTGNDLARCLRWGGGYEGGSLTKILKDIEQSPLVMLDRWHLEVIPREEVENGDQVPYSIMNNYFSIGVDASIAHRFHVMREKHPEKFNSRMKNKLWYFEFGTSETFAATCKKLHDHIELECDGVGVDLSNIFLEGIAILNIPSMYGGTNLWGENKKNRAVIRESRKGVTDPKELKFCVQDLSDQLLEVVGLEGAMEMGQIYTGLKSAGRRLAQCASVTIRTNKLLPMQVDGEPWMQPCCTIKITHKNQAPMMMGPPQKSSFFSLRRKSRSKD

Compound `O=C(c1ccc(F)cc1)C1CCN(CCn2c(=O)[nH]c3ccccc3c2=O)CC1` [Ketanserin] came in with an activity at 100 µM at Gamma (DGK gamma) of 24%. Besides, the “activity against DGKα in the substrate assay” value on recombinant DGKα (100 μM) is “negligible activity”.

In turn, `Fc1ccc(C(=C2CCNCC2)c2ccc(F)cc2)cc1` [RF001, 4-(Bis(4-fluorophenyl)methylene) piperidine] displayed an activity at 100 µM on Gamma (DGK gamma) of 82%. At Gamma (DGK gamma) (read-out: 1 mM % Activity, Gamma), the activity at 1000 µM is 5%. Further, the IC50 at recombinant DGKα (setting [1]) is 223 µM; at recombinant DGKα (setting [2]) it was 120 to 414 µM.

Consider `Cc1nc2sccn2c(=O)c1CCN1CCC(=C(c2ccc(F)cc2)c2ccc(F)cc2)CC1` [Ritanserin], for which the activity at 100 µM on Gamma (DGK gamma) is 55%. Moreover, the “blockade of recombinant DGKα activity” value at recombinant DGKα (100 μM compound) is around 80%. In addition, at recombinant DGKα (100 μM, from substrate- and chemical proteomic-assays), the “blockade of DGKα activity” value is around 70%. Moreover, the values for the IC50 on recombinant DGKα (setting [1]) and on recombinant DGKα (setting [2]) were 25 µM and 20 to 30 µM, respectively.
